Test results: US10406120B2, “Methods and compositions for treating kidney disorders” (Golden Biotechnology Corporation, priority 2013, dated 2019)

Columns and labels:
[1] = test system: ROS; assay: AcP-IgAN model: ROS levels; format: in vivo, B cell-deficient mice; conditions: AcP-IgAN mice
Description: Kidney in-situ superoxide anion production was determined by DHE labeling according to the known method. (Wu, et al., Nephrol Dial Transplant, 2008, 23: 3082-3090, or Ka, et al., J. Am. Soc. Nephrol. 2007, 18:2473-2485) Fluorescent images were quantified by counting the percentage of positive nuclei in the total nuclei per kidney cross section. Sera and kidney tissues were assessed for superoxide anion according to the known method. (Wu, et al., J Pineal Res, 2001, 30: 147-156, or Ka, et al., J. Am. Soc. Nephrol. 2007, 18:2473-2485) For ROS levels of serum, urine, and renal tissue, the samples were incubated with Krebs-HEPES buffer, and lucigenin (Sigma-Aldrich Chemical Co, MO) at 1.25 mM was used as substrate. Luminescence counts were obtained in duplicate at 15 sec intervals by a microplate luminometer (Hidex Microplate Luminometer, Finland), as previously described (Kretzler, et al.,. Virchows Arch, 425: 181-193, 1994). The superoxide anion activity was expressed as relative luminescence units (RLU) per 15 min per mg of organ dry weight (i.e., RUL/15 min/mg) or RLU/15 min/ml.
(§1) B cell-deficient mice (B6.129S2-Igh-6tm1Cgn/J) were obtained from the Academia Sinica (Professor John T. Kung, Institute of Molecular Biology), and maintained at the animal center of the National Defense Medical Center, Taipei, Taiwan. AcP-IgAN was induced in the mice by daily injection of purified IgA anti-phosphorylcholine antibodies and pneumococcal C-polysaccharide (PnC) as described previously (Chao, et al., Kidney Int. 70:283-297; 2006). All animal experiments were performed with the approval of the Institutional Animal Care and Use Committee of The National Defense Medical Center, Taiwan, and were consistent with the NIH Guide for the Care and Use of Laboratory Animals.

[2] = test system: Nrf2; assay: FSGS model: Western blot of nuclear Nrf2 in kidney; format: in vivo, BALB/c mice; conditions: FSGS mice, day 14 to day 21, vs control FSGS mice or normal controls
Description: Experiments described herein were performed on 8-week-old female BALB/c mice. The FSGS mice were injected intravenously with a single dose of adriamycin (0.1 mg/10 g body weight). The mice were given Compound 1 six hours before adriamycin injection by gavage daily till sacrifice. BALB/c mice intraperitoneal injected with normal saline were used as normal controls, while ASLN mice given vehicle (corn oil) by gavage were used as disease controls. Mice were killed at day 7, 14, or 21 after disease induction, and spleen, renal cortical tissue, and blood samples collected and stored appropriately until analysis. All animal experiments were performed with the ethical approval of the Institutional Animal Care and Use Committee of The National Defense Medical Center, Taiwan and performed according to the ethical rules in the NIH Guide for the Care and Use of Laboratory Animals.
The preparation of cytoplasmic and nuclear proteins of renal tissues was extracted using the Nuclear Extract Kit (Active Motif, Tokyo, Japan) according to the manufacturer's instructions. Target proteins in the cytoplasmic and/or nuclear fractions of kidney tissue were measured by Western blot analysis using rabbit antibodies against mouse Nrf2, or p47^phox (Santa Cruz). […]

[3] = test system: splenocytes; assay: AcP-IgAN model: T cell proliferation analysis (thymidine uptake); format: in vivo, B cell-deficient mice
Description: as §1
Splenocytes from the mice were prepared as described as above, then were cultured in triplicate in wells (5×10^5 cells in 200 μl/well) in 96-well flat-bottomed microtiter plates previously coated overnight at 4° C. with 0.25 μg/ml of anti-mouse CD3 antibody (BD Biosciences). After 48 hr, the cultures were pulsed with 1 μCi of 3H-methyl thymidine (Amersham Pharmacia Biotech, NJ), harvested 16 hr later, and the incorporated 3H-methyl thymidine measured using a TopCount (Packard, PerkinElmer, MA).

[4] = test system: IL-6; assay: AcP-IgAN model: renal IL-6 mRNA and protein; format: in vivo, B cell-deficient mice; conditions: AcP-IgAN mice
Description: as §1
For IHC, formalin fixed and paraffin embedded tissue sections or frozen sections were incubated with against IL-6 (R&D Systems, MN), MCP-1 (Santa Cruz, Calif.), F4/80 (monocytes/macrophages; Serotec, N.C.), collagen IV (Southern Biotech, AL), TGF-β1 (Santa Cruz), phopsho-NFκB p65 (Cell Signaling, MA), CD3 (pan-T cell; Serotec), CD4 (T helper cell; BioLegend, CA), CD8 (cytotoxic T cell), CD11b (macrophages/neutrophils), or CD11c (dendritic cells) (BD Biosciences, CA) antibodies. The FITC-conjugated, Alexa Fluor 488-conjugated (Invitrogen, CA) or horseradish peroxidase (HRP) conjugated secondary antibodies (DAKO, Denmark) were then applied to the sections. Hematoxylin or 4′,6-diamidino-2-phenylindole (DAKO) was used in the counter staining for nuclei.
(§2) Total cortical kidney RNA was extracted with TriZOL reagents (Invitrogen) from cortical tissue of the kidney. For first-strand cDNA synthesis, 1.5 μg of total RNA was used in a single-round reverse transcriptase reaction. The reaction mixture consisted of 0.9 μl of Oligo (dT) 12 to 18 primer, 1.0 mM deoxyribonucleotide triphosphate (dNTP), 1 μl first strand buffer, 0.4 mM dithiothreitol, 80 U of RNaseout recombinant ribonuclease inhibitor, and 300 U of superscript II RNase H (Invitrogen). Real-time PCR was performed on an ABI Prism 7700 Sequence Detection System (Applied Biosystems, CA). […]

[5] = test system: IL-1beta; assay: AcP-IgAN model: renal IL-1beta mRNA; format: in vivo, B cell-deficient mice
Description: as §1
as §2, with “CA). All of the probes and primers were Assays-on-Demand Gene expression products (Applied Biosystems).” for “CA).”

[6] = test system: IL-18; assay: AcP-IgAN model: renal IL-18 mRNA and protein; format: in vivo, B cell-deficient mice; conditions: AcP-IgAN mice
Description: as §1
as §2, with “CA). All of the probes and primers were Assays-on-Demand Gene expression products (Applied Biosystems).” for “CA).”

[7] = day 28, vs control AcP-IgAN mice

## COC1=C(OC)[C@H](O)[C@H](C/C=C(\C)CC/C=C(\C)CCC=C(C)C)[C@@H](C)C1=O [Compound 1, Antroquinonol]
[1]; day 3, vs control AcP-IgAN mice
  ROS levels in sera: substantial reduction
[1]; [7]
  ROS levels in renal tissues: substantial reduction
  ROS levels in sera: substantial reduction
  ROS levels in urine: substantial reduction
[2]
  Nrf2 translocation into nuclei: strongly augmented
[3]; AcP-IgAN mice, day 28
  proliferation of CD3^+ T cell in splenocytes (thymidine uptake): near baseline levels of proliferation
[3]; day 3, worded as control AcP-IgAN mice relative to AcP-IgAN+Antroq mice
  proliferation of CD3^+ T cell in splenocytes (thymidine uptake): greatly increased proliferation of CD3^+ T cell in splenocytes compared to that of AcP-IgAN+Antroq mice
[4]; day 3
  renal expression levels of mRNA and protein of IL-6: no such effect
[4]; [7]
  renal expression levels of mRNA of IL-6: significantly reduced
  renal expression levels of protein of IL-6: significantly reduced
[5]; AcP-IgAN mice, day 28, vs control AcP-IgAN mice
  renal mRNA levels of IL-1beta (elevation): significantly inhibited
[5]; all mice, day 3
  renal IL-1beta mRNA expression: no detectable increase
[6]; day 3 until day 28, real-time PCR
  renal mRNA expression levels of IL-18 (elevation): greatly inhibited
[6]; only at day 28
  renal IL-18 protein production: significantly inhibited
